Where a name gives a salt, the structure may show the parent alone.
Key:
[1] = Solid stability test of crystal (storage, content by HPLC, appearance); type: physicochemical; set-up: key to Change of Appearance: when there was no change in appearance, an evaluation was (−); when there was a little change observed, it was (±); conditions: for Survival Rate: vs standard stored at −40° C.; for Change in the appearance / Solid stability, decrease in content: all storage conditions, two or four weeks
Procedure: About 10 mg of crystal was correctly weighed in the 2-mL glass container with a stopper made of polyethylene.
After closing the glass container, it was rolled with parafilm, and stored for two or four weeks at 40° C. or 60° C. The sample stored at 40° C. is called 40° C. with airtight stopper, and the sample saved at 60 C. is called 60° C. with airtight stopper.
Also samples were reserved with the glass container opened at 40° C., relative humidity 89%, or 60° C., for two weeks or four weeks. The sample stored at 40° C. and relative humidity 89% is called 40° C. R.H.89%, and the sample stored at 60° C. is called 60° C. Opened.
Using samples with airtight stopper stored at −40° C. as a standard, the content was measured with the absolute calibration method by the HPLC method under the following conditions:
In addition, when there was no change in appearance, an evaluation was (−), and when there was a little change observed, it was (±).
Column: CAPCELL PAK C18 AQ (3 micrometer 3.0×150 mm)
Column temperature: 50° C.
UV detection wavelength: 231 nm
[A] A mixed solution containing ammonium formate (10 mmol/L) and magnesium chloride (10 mmol/L)

[2] = Confirmatory test for hygroscopicity of crystal (automated water vapor sorption, DVS); type: physicochemical
Procedure: After completion of the drying, relative humidity was continuously changed at intervals of 5% in a range from 0% to 95% and the amount of water vapor adsorption and desorption of the sample was measured with automated water vapor sorption apparatus: DVS Advantage (Surface Measurement Systems).

[3] = 40° C. R.H. 89%, opened, 2 weeks
[4] = 40° C. R.H. 89%, opened, 4 weeks
[5] = 60° C. airtight stopper, 2 weeks
[6] = 60° C. airtight stopper, 4 weeks
[7] = 40° C. airtight stopper, 4 weeks

Structure (SMILES)	Change of Appearance [1, 3]	Survival Rate [1, 3] [%]	Change of Appearance [1, 4]	Survival Rate [1, 4] [%]	Change of Appearance ([1]; 60° C. Opened, 2 weeks)	Survival Rate ([1]; 60° C. Opened, 2 weeks) [%]	Change of Appearance ([1]; 60° C. Opened, 4 weeks)	Survival Rate ([1]; 60° C. Opened, 4 weeks) [%]	Change of Appearance [1, 5]	Survival Rate [1, 5] [%]	Change of Appearance [1, 6]	Survival Rate [1, 6] [%]	Change in the appearance [1]	Solid stability, decrease in content [1]	Change of Appearance [1, 7]	Survival Rate [1, 7] [%]	Hygroscopicity (in words) ([2]; 0% to 95% relative humidity at 25° C.)	Amount of the maximum moisture absorption ([2]; range of 0% to 95% of relative humidity at 25° C.)
CC(C)(NC(=O)C1=C(O)[C@@H]2Oc3c(O)ccc4c3[C@@]23CCN(CC2CC2)[C@H](C4)[C@]3(O)C1)c1nc(-c2ccccc2)no1 [p-toluenesulfonic acid salt hydrate (form I)]	−	101.2	±	98.4	−	100.5	±	98.5	−	100.8	±	99.2	no change in the appearance	stable				
CC(C)(NC(=O)C1=C(O)[C@@H]2Oc3c(O)ccc4c3[C@@]23CCN(CC2CC2)[C@H](C4)[C@]3(O)C1)c1nc(-c2ccccc2)no1 [p-toluenesulfonic acid salt (non-solvate)]	−	99.3	−	100.5	−	100.3	−	98.8	−	99.9	−	99.6	no change in the appearance	stable	−	98.0	hygroscopicity was little observed	less than 1.2%
CC(C)(NC(=O)C1=C(O)[C@@H]2Oc3c(O)ccc4c3[C@@]23CCN(CC2CC2)[C@H](C4)[C@]3(O)C1)c1nc(-c2ccccc2)no1 [p-toluenesulfonic acid salt hydrate (form II)]	−	100.9	±	100.1	−	100.7	±	100.4	−	102.0	±	100.6	no change in the appearance	stable				

— patent publication US9951082B2, “Crystal of 6,7-unsaturated-7-carbamoyl morphinan derivative and method for producing the same” (Shionogi & Co., Ltd., priority 2010, dated 2018)
